Reference: patent US10588910B2, “Pharmaceutical composition comprising epidithiodioxopiperazine compound or derivative thereof, or pharmaceutically acceptable salt thereof, for preventing or treating pulmonary hypertension” (priority 2016, dated 2020)
Several values for one entry are separate records, joined by “and”; a condition that tells them apart may be missing. Equal values may be shown once.

System: rat models in which pulmonary arterial hypertension is induced by monocrotaline (MCT)
Experiment: Monocrotaline-induced pulmonary arterial hypertension rat model: heart mass, RV/(LV+septum) ratio, pulmonary arterial wall thickness (H&E)
Type: in vivo, Male SD rats
Details: for hypertrophy of the right ventricle and pulmonary artery intimal thickening: animals with pulmonary arterial hypertension induced by monocrotaline; for hypertrophy of the right ventricle and pulmonary artery intimal thickening / therapeutic effect on pulmonary arterial hypertension: summary statement; for Total mass (heart) / LV + Septum (mass), Average / RV (right ventricle mass), Average / RV/LV + Septum, Average / Total mass (heart), Average / LV + Septum (mass) / RV (right ventricle mass) / RV/LV + Septum: 3 weeks; for Total mass (heart) / LV + Septum (mass) / RV (right ventricle mass) / RV/LV + Septum: individual rats; for LV + Septum (mass), Average / RV (right ventricle mass), Average / RV/LV + Septum, Average / Total mass (heart), Average: group average
Experimental: Male SD rats weighing approximately 210 g were used as animal models. In order to induce pulmonary arterial hypertension, a single intraperitoneal injection of monocrotaline (MCT) at a dose of 60 mg/kg was carried out. Accordingly, the rat models in which pulmonary arterial hypertension is induced were maintained for 3 weeks while test drugs were administered or not administered, and then the rat models were sacrificed. Thereafter, the hearts were excised and analyzed.
Chaetocin (the compound of Formula 2), which is a representative epidithiodioxopiperazine compound, was administered as a test drug to the pulmonary arterial hypertension animal models prepared according to Preparation Example 1 above at each dose of 6 μg, 12 μg, and 30 μg every 3 days. Normal rats in which MCT is not administered were used as the control group; and rats in which pulmonary arterial hypertension is induced by administering only MCT were used as the MCT group. The control group and each experimental group consisted of 3 to 4 rats.
The hearts were excised as in Preparation Example 1, and the excised hearts were measured for their total mass. Thereafter, the right ventricle (RV) was separated and the masses of each of the right ventricle, left ventricle, and cardiac septum (LV+septum) were separately measured to calculate the ratio. The results of the measurement of each experimental animal, the normal rats (control group), the MCT group, and the experimental groups (chaetocin groups; MCT+(dose μg)) in which chaetocin is administered at each dose of 30 μg, 12 μg, and 6 μg are shown in order in Tables 1 to 5.
Further, the sizes of the excised entire hearts and separated right ventricles were visually observed (FIG. 1), and the thicknesses of the pulmonary arterial walls were measured by H&E staining (FIGS. 2 to 11). In addition, in order to visualize the difference in the heart and pulmonary artery according to the dose-dependent chaetocin administration after the pulmonary arterial hypertension induction in the pulmonary arterial hypertension model, the average values of the heart mass, the ratio of the right ventricle to the left ventricle, and the thickness of the pulmonary artery wall, which are calculated from the hearts excised from each animal model, are shown in FIGS. 12 to 14, respectively. […]

[1] = MCT rats, chaetocin 6 μg every 3 days
[2] = MCT rats, chaetocin 12 μg every 3 days
[3] = MCT rats, chaetocin 30 μg every 3 days

CN1C(=O)C2SSC1C(=O)N2C [5,7-Dimethyl-2,3-dithia-5,7-diazabicyclo[2.2.2]octane-6,8-dione]
hypertrophy of the right ventricle and pulmonary artery intimal thickening: reduced to a level similar to normal
therapeutic effect on pulmonary arterial hypertension: excellent therapeutic effect

CN1C(=O)C23CC4(C56CC78SSC(CO)(C(=O)N7C5Nc5ccccc56)N(C)C8=O)c5ccccc5NC4N2C(=O)C1(CO)SS3 (stereo not shown) [chaetocin]
Total mass (heart) (MCT 60 mg/kg i.p. rats, chaetocin 30 μg every 3 days): 1185 mg and 865 mg and 1135 mg and 1258 mg
LV + Septum (mass), Average [1]: 718.3 mg
RV (right ventricle mass), Average [1]: 190.0 mg
RV/LV + Septum, Average [1]: 0.26
Total mass (heart), Average [1]: 908.3 mg
LV + Septum (mass) [1]: 732 mg and 681 mg and 742 mg
RV (right ventricle mass) [1]: 190 mg and 175 mg and 205 mg
RV/LV + Septum [1]: 0.26 (2×) and 0.28
Total mass (heart) [1]: 922 mg and 856 mg and 947 mg
LV + Septum (mass), Average [2]: 935.7 mg
RV (right ventricle mass), Average [2]: 259.0 mg
RV/LV + Septum, Average [2]: 0.28
Total mass (heart), Average [2]: 1194.7 mg
LV + Septum (mass) [2]: 913 mg and 968 mg and 926 mg
RV (right ventricle mass) [2]: 261 mg and 295 mg and 221 mg
RV/LV + Septum [2]: 0.29 and 0.30 and 0.24
Total mass (heart) [2]: 1174 mg and 1263 mg and 1147 mg
LV + Septum (mass), Average [3]: 870.8 mg
RV (right ventricle mass), Average [3]: 240.0 mg
RV/LV + Septum, Average [3]: 0.3
Total mass (heart), Average [3]: 1110.8 mg
LV + Septum (mass) [3]: 921 mg and 689 mg and 874 mg and 999 mg
RV (right ventricle mass) [3]: 264 mg and 176 mg and 261 mg and 259 mg
RV/LV + Septum [3]: 0.29 and 0.26 (2×) and 0.30
hypertrophy of the right ventricle and pulmonary artery intimal thickening: reduced to a level similar to normal
therapeutic effect on pulmonary arterial hypertension: excellent therapeutic effect
